Measurements taken from US8952024B2, “Herbicidal pyrimidone derivatives” (E I du Pont de Nemours and Company, priority 2009, dated 2015).
Read-outs that look alike come from different tables or passages of the source.

Legend:
Type in all cases: in vivo
[1] = test system: giant foxtail (Setaria faberii); test: Test A pre-/postemergence plant response; settings: Setaria faberi, 240 h; for pest or weed control at 125 g/ha: 125 g ai/ha; for pest or weed control at 500 g/ha: 500 g ai/ha
Summary of the method: (§1)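 Both pre- and postemergence treatments are applied simultaneously, using chemicals formulated in a non-phytotoxic solvent mixture with surfactant. Postemergence plants are 2–10 cm high with one to two leaves. After approximately ten days in a greenhouse, injury is scored visually from 0 (none) to 100 (complete control) relative to untreated plants.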

[2] = test system: pigweed (Amaranthus retroflexus); test: Test A pre-/postemergence plant response; settings: Amaranthus retroflexus, 240 h; for pest or weed control at 125 g/ha: 125 g ai/ha; for pest or weed control at 500 g/ha: 500 g ai/ha
Summary of the method: as §1

[3] = test system: large crabgrass (Digitaria sanguinalis); test: Test A pre-/postemergence plant response; settings: Digitaria sanguinalis, 240 h; for pest or weed control at 125 g/ha: 125 g ai/ha; for pest or weed control at 500 g/ha: 500 g ai/ha
Summary of the method: as §1

[4] = test system: morningglory (Ipomoea spp.); test: Test A pre-/postemergence plant response; settings: Ipomoea, 240 h; for pest or weed control at 125 g/ha: 125 g ai/ha; for pest or weed control at 500 g/ha: 500 g ai/ha
Summary of the method: as §1

[5] = test system: barnyardgrass (Echinochloa crus-galli); test: Test A pre-/postemergence plant response; settings: Echinochloa crus-galli, 240 h; for pest or weed control at 125 g/ha: 125 g ai/ha; for pest or weed control at 500 g/ha: 500 g ai/ha
Summary of the method: as §1

[6] = test system: velvetleaf (Abutilon theophrasti); test: Test A pre-/postemergence plant response; settings: Abutilon theophrasti, 240 h; for pest or weed control at 125 g/ha: 125 g ai/ha; for pest or weed control at 500 g/ha: 500 g ai/ha
Summary of the method: as §1

[7] = test system: wheat (Triticum aestivum); test: Test A pre-/postemergence plant response; settings: Triticum aestivum, 240 h; for plant injury at 125 g/ha: 125 g ai/ha; for plant injury at 500 g/ha: 500 g ai/ha
Summary of the method: as §1

corn (Zea mays) = test: Test A pre-/postemergence plant response; settings: Zea mays, 240 h; for Corn plant response rating (crop injury, 0 = no effect, 100 = complete kill) at 125 g/ha: 125 g ai/ha
Summary of the method: as §1

[8] = test system: chickweed (Stellaria media); test: Test B postemergence plant response; settings: Stellaria media, post-emergence, 360 h, Postemergence, read-out: Plant response rating, Chickweed
Summary of the method: (§2)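 Visual ratings from 0 (no effect) to 100 (complete control), made against controls 13–15 days after treatment, kept in a greenhouse. Compounds were applied postemergence to potted plants at the 1- to 4-leaf stage (2–18 cm).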

[9] = test system: windgrass (Apera spica-venti); test: Test B postemergence plant response; settings: Apera spica-venti, post-emergence, 360 h, Postemergence, read-out: Plant response rating, Windgrass
Summary of the method: as §2

[10] = test system: canarygrass (Phalaris minor); test: Test B postemergence plant response; settings: Phalaris minor, post-emergence, 360 h, Postemergence, read-out: Plant response rating, Canarygrass
Summary of the method: as §2

rice (Oryza sativa) = test: Test B flooded paddy test
Summary of the method: (§3)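 Seedlings reaching 2 leaves are flooded 3 cm deep; test material is delivered to that water, which stays at the same depth. Plants remain in a greenhouse 13–15 days and are then scored by eye versus controls from 0 to 100.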

[11] = test system: ducksalad (Heteranthera limosa); test: Test B flooded paddy test
Summary of the method: as §3

[12] = pre-emergence, Preemergence, 0 to 100 scale, 0 = no effect, 100 = complete control, read-out: Plant response rating, Foxtail, Giant
[13] = pre-emergence, Preemergence, 0 to 100 scale, 0 = no effect, 100 = complete control, read-out: Plant response rating, Pigweed
[14] = pre-emergence, Preemergence, 0 to 100 scale, 0 = no effect, 100 = complete control, read-out: Plant response rating, Crabgrass, Large
[15] = pre-emergence, Preemergence, 0 to 100 scale, 0 = no effect, 100 = complete control, read-out: Plant response rating, Morningglory
[16] = pre-emergence, Preemergence, 0 to 100 scale, 0 = no effect, 100 = complete control, read-out: Plant response rating, Barnyardgrass
[17] = pre-emergence, Preemergence, 0 to 100 scale, 0 = no effect, 100 = complete control, read-out: Plant response rating, Velvetleaf
[18] = pre-emergence, Preemergence, 0 to 100 scale, 0 = no effect, 100 = complete control, read-out: Plant response rating, Wheat
[19] = 31 g ai/ha, 0 to 100 scale (0 no effect, 100 complete control)
[20] = 62 g ai/ha, scale 0 to 100 (0 no effect, 100 complete control)
[21] = 125 g ai/ha, scale 0 (no effect) to 100 (complete control), 13 to 15 days
[22] = 250 g ai/ha, scale 0 to 100 (0 no effect, 100 complete control), 13 to 15 days
[23] = Flood, 31 g ai/ha, scale 0 to 100 (0 no effect, 100 complete control)

COCCn1c(-c2cc(F)cc(F)c2)ncc(C(=O)C2=C(O)C3CCC(C3)C2=O)c1=O (stereo not shown) [Compound 243, 2-(3,5-difluorophenyl)-5-[(2-hydroxy-4-oxobicyclo[3.2.1]oct-2-en-3-yl)carbonyl]-3-(2-methoxyethyl)-4(3H)-pyrimidinone]
pest or weed control at 125 g/ha ([1]; post-emergence, Postemergence, 0 to 100 scale where 0 is no effect and 100 is complete control, read-out: Plant response rating, Foxtail, Giant): 100%
pest or weed control at 500 g/ha ([1]; post-emergence, Postemergence, visual injury, 0 to 100 scale (0 no effect, 100 complete control), approx. ten days, read-out: Foxtail, Giant plant response rating): 100%
pest or weed control at 125 g/ha [1, 12]: 90%
pest or weed control at 500 g/ha [1, 12]: 100%
pest or weed control at 125 g/ha ([2]; post-emergence, Postemergence, 0 to 100 scale where 0 is no effect and 100 is complete control, read-out: Plant response rating, Pigweed): 100%
pest or weed control at 500 g/ha ([2]; post-emergence, Postemergence, visual injury, 0 to 100 scale (0 no effect, 100 complete control), approx. ten days, read-out: Pigweed plant response rating): 100%
pest or weed control at 125 g/ha [2, 13]: 100%
pest or weed control at 500 g/ha [2, 13]: 100%
pest or weed control at 125 g/ha ([3]; post-emergence, Postemergence, 0 to 100 scale where 0 is no effect and 100 is complete control, read-out: Plant response rating, Crabgrass, Large): 90%
pest or weed control at 500 g/ha ([3]; post-emergence, Postemergence, visual injury, 0 to 100 scale (0 no effect, 100 complete control), approx. ten days, read-out: Crabgrass, Large plant response rating): 90%
pest or weed control at 125 g/ha [3, 14]: 100%
pest or weed control at 500 g/ha [3, 14]: 100%
pest or weed control at 125 g/ha ([4]; post-emergence, Postemergence, 0 to 100 scale where 0 is no effect and 100 is complete control, read-out: Plant response rating, Morningglory): 100%
pest or weed control at 500 g/ha ([4]; post-emergence, Postemergence, visual injury, 0 to 100 scale (0 no effect, 100 complete control), approx. ten days, read-out: Morningglory plant response rating): 100%
pest or weed control at 125 g/ha [4, 15]: 70%
pest or weed control at 500 g/ha [4, 15]: 90%
pest or weed control at 125 g/ha ([5]; post-emergence, Postemergence, 0 to 100 scale where 0 is no effect and 100 is complete control, read-out: Plant response rating, Barnyardgrass): 100%
pest or weed control at 500 g/ha ([5]; post-emergence, Postemergence, visual injury, 0 to 100 scale (0 no effect, 100 complete control), approx. ten days, read-out: Barnyardgrass plant response rating): 100%
pest or weed control at 125 g/ha [5, 16]: 70%
pest or weed control at 500 g/ha [5, 16]: 100%
pest or weed control at 125 g/ha ([6]; post-emergence, Postemergence, 0 to 100 scale where 0 is no effect and 100 is complete control, read-out: Plant response rating, Velvetleaf): 100%
pest or weed control at 500 g/ha ([6]; post-emergence, Postemergence, visual injury, 0 to 100 scale (0 no effect, 100 complete control), approx. ten days, read-out: Velvetleaf plant response rating): 100%
pest or weed control at 125 g/ha [6, 17]: 90%
pest or weed control at 500 g/ha [6, 17]: 100%
plant injury at 125 g/ha ([7]; post-emergence, Postemergence, 0 to 100 scale where 0 is no effect and 100 is complete control, read-out: Plant response rating, Wheat): 70%
plant injury at 500 g/ha ([7]; post-emergence, Postemergence, visual injury, 0 to 100 scale (0 no effect, 100 complete control), approx. ten days, read-out: Wheat plant response rating): 90%
plant injury at 125 g/ha [7, 18]: 30%
plant injury at 500 g/ha [7, 18]: 70%
Corn plant response rating (crop injury, 0 = no effect, 100 = complete kill) at 125 g/ha (corn (Zea mays); post-emergence, Postemergence, 0 to 100 scale where 0 is no effect and 100 is complete control): 70%
plant injury at 500 g/ha (corn (Zea mays); post-emergence, Postemergence, 500 g ai/ha, visual injury, 0 to 100 scale (0 no effect, 100 complete control), approx. ten days, read-out: Corn plant response rating): 90%
Corn plant response rating (crop injury, 0 = no effect, 100 = complete kill) at 125 g/ha (corn (Zea mays); pre-emergence, Preemergence, 0 to 100 scale, 0 = no effect, 100 = complete control): 30%
Corn plant response rating (crop injury, 0 = no effect, 100 = complete kill) at 500 g/ha (corn (Zea mays); pre-emergence, Preemergence, 500 g ai/ha, 0 to 100 scale, 0 = no effect, 100 = complete control): 60%
pest or weed control at 31 g/ha [8, 19]: 80%
pest or weed control at 62 g/ha [8, 20]: 100%
pest or weed control at 125 g/ha [8, 21]: 100%
pest or weed control at 250 g/ha [8, 22]: 100%
pest or weed control at 31 g/ha [9, 19]: 80%
pest or weed control at 62 g/ha [9, 20]: 90%
pest or weed control at 125 g/ha [9, 21]: 98%
pest or weed control at 250 g/ha [9, 22]: 100%
pest or weed control at 31 g/ha [10, 19]: 90%
pest or weed control at 62 g/ha [10, 20]: 98%
pest or weed control at 125 g/ha [10, 21]: 100%
pest or weed control at 250 g/ha [10, 22]: 100%
Rice plant response rating (rice (Oryza sativa); [23]): 45
plant injury at 250 g/ha (rice (Oryza sativa); Oryza sativa, 250 g ai/ha, flooded paddy test, visual rating on 0 to 100 scale (0 no effect, 100 complete control) after 13 to 15 days, read-out: Plant response rating, Flood, Rice): 75%
plant injury at 62 g/ha (rice (Oryza sativa); Oryza sativa, Flood (flooded paddy test), 62 g ai/ha, scale of 0 to 100 where 0 is no effect and 100 is complete control, 13 to 15 days, read-out: Plant response rating, Rice): 60%
plant injury at 125 g/ha (rice (Oryza sativa); Oryza sativa, Flood (flooded paddy test), 125 g ai/ha, scale 0 to 100, 0 is no effect, 100 is complete control, 13 to 15 days, read-out: Plant response rating, Rice): 95%
Ducksalad plant response rating [11, 23]: 0
pest or weed control at 250 g/ha ([11]; Heteranthera limosa, 360 h, 250 g ai/ha, flooded paddy test, visual rating on 0 to 100 scale (0 no effect, 100 complete control) after 13 to 15 days, read-out: Plant response rating, Flood, Ducksalad): 100%
pest or weed control at 62 g/ha ([11]; Heteranthera limosa, 360 h, Flood (flooded paddy test), 62 g ai/ha, scale of 0 to 100 where 0 is no effect and 100 is complete control, 13 to 15 days, read-out: Plant response rating, Ducksalad): 85%
pest or weed control at 125 g/ha ([11]; Heteranthera limosa, 360 h, Flood (flooded paddy test), 125 g ai/ha, scale 0 to 100, 0 is no effect, 100 is complete control, 13 to 15 days, read-out: Plant response rating, Ducksalad): 100%
